Each structure is given as a SMILES string. Positions of bridges follow the written chain, without caps; N, C: chain ends. Non-standard residues stand in square brackets, D forms with d. Residues, ends and D or L forms follow the SMILES beside them. *: point of attachment. hPhe(3-Cl-4-CF3) = N[C@@H](CCc1ccc(C(F)(F)F)c(Cl)c1)C(=O)O; hPhe(3-F,4-CF3) = N[C@@H](CCc1ccc(C(F)(F)F)c(F)c1)C(=O)O; hPhe(4-CF3) = N[C@@H](CCc1ccc(C(F)(F)F)cc1)C(=O)O; NMePhe(4-Cl) = CN[C@@H](Cc1ccc(Cl)cc1)C(=O)O; NMePhe(4-Me) = CN[C@@H](Cc1ccc(C)cc1)C(=O)O; NMePhe(3-F) = CN[C@@H](Cc1cccc(F)c1)C(=O)O; NMeMet(O2) = CN[C@@H](CCS(C)(=O)=O)C(=O)O; Phe(3-Cl) = N[C@@H](Cc1cccc(Cl)c1)C(=O)O; Phe(3-I) = N[C@@H](Cc1cccc(I)c1)C(=O)O; NMeCha = CN[C@@H](CC1CCCCC1)C(=O)O; NMeCba = CN[C@@H](CC1CCC1)C(=O)O; NMeChg = CN[C@H](C(=O)O)C1CCCCC1; NMeF = CN[C@@H](Cc1ccccc1)C(=O)O; NMeD = CN[C@@H](CC(=O)O)C(=O)O; CH2CONHtBu = CC(C)(C)NC(=O)C*; NMeL = CN[C@@H](CC(C)C)C(=O)O; NMeV = CN[C@H](C(=O)O)C(C)C; d(β3hA) = C[C@@H](N)CC(=O)O; Ac6c = NC1(C(=O)O)CCCCC1; NMeA = CN[C@@H](C)C(=O)O; Nle = CCCC[C@H](N)C(=O)O; Piperidide = C1CCN(*)CC1; Pyrrolidide = C1CCN(*)C1; Ac5c = NC1(C(=O)O)CCCC1; Aze = O=C(O)[C@@H]1CCN1; Cyclobutyl = C1CC(*)C1; NEtG = CCNCC(=O)O; βAla = NCCC(=O)O; Sar = CNCC(=O)O

In the assay the target is T1, Kras and SOS1 (biotin-tagged human Kras loaded with GDP, His-tagged human SOS1) (Homo sapiens, UniProt P01116, G12D).
T1 construct: made in house; host or cells: E. coli (stated for Kras only)
T1 sequence (P01116 1-188 isoform P01116-2 G12D): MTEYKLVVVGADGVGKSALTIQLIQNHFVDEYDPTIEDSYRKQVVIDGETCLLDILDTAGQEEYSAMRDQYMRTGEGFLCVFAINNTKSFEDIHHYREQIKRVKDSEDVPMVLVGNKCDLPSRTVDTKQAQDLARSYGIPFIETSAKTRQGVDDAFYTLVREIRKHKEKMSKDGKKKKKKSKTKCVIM
The assay can be described thus: Protein-protein interaction inhibition between Kras and SOS1 (KrasGl2D-SOS PPI) using AlphaScreen. Type of assay: binding. To be noted: AlphaScreen; biotin-tagged human Kras loaded with GDP, His-tagged human SOS1; read-out: KRAS G12D-SOS PPI IC50. The procedure, abridged:
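AlphaScreen format: Ni donor beads capture His-SOS1, streptavidin acceptor beads capture biotinylated Kras (E. coli-expressed, GDP-loaded post-purification). Excite 680 nm, read 520-620 nm.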
`CC[C@H](C)[C@@H]1NC(=O)[C@H](C)N(C)C(=O)C[C@@H](C(=O)N2CCCC2)NC(=O)[C@H](C(C)C)N(C)C(=O)[C@H](Cc2ccccc2)N(C)C(=O)[C@H](Cc2ccccc2)NC(=O)[C@H](Cc2cccc(Cl)c2)NC(=O)CN(C)C(=O)[C@H](Cc2ccc(Cl)cc2)N(C)C(=O)CN(C)C(=O)CN(CC)C1=O` [Compound 224] ([NMeA]I[NEtG][Sar][NMePhe(4-Cl)][Sar][Phe(3-Cl)]F[NMeF][NMeV]D-Pyrrolidide; lactam N-11): the IC50 came to 230 nM.

Regarding `CC(C)C[C@H]1C(=O)N[C@@H](COC2CCC2)C(=O)N(C)CC(=O)N(C)CC(=O)N(C)[C@@H](CC2CCCCC2)C(=O)N(C)CC(=O)N[C@@H](CCc2ccc(C(F)(F)F)c(Cl)c2)C(=O)N2CCC[C@H]2C(=O)NC2(CCCC2)C(=O)N(C)[C@@H](C2CCCCC2)C(=O)N(C)[C@H](C(=O)N2CCCCC2)CC(=O)N1C` [Compound 226] ([NMeL]S(Cyclobutyl)[Sar][Sar][NMeCha][Sar][hPhe(3-Cl-4-CF3)]P[Ac5c][NMeChg][NMeD]-Piperidide; lactam N-11), the IC50 was 3.5 nM. Regarding `CC[C@H](C)[C@@H]1NC(=O)[C@H](CC2CCC2)N(C)C(=O)C[C@@H](C)NC(=O)[C@H](C(C)C)N(C)C(=O)C2(CCCC2)NC(=O)[C@@H]2CCCN2C(=O)[C@H](CCc2ccc(C(F)(F)F)c(Cl)c2)NC(=O)CN(C)C(=O)[C@H](CC2CCCCC2)N(C)C(=O)CN(C)C(=O)CN(C)C1=O` [Compound 230] (cyclo([Ac5c][NMeV][d(β3hA)][NMeCba]I[Sar][Sar][NMeCha][Sar][hPhe(3-Cl-4-CF3)]P)), the IC50 amounted to 39 nM. Take `CC[C@H](C)[C@@H]1NC(=O)[C@H](CC(C)C)N(C)C(=O)C[C@@H](C)NC(=O)[C@H](CC(C)C)N(C)C(=O)C2(CCCCC2)NC(=O)[C@@H]2CCCN2C(=O)[C@H](CCc2ccc(C(F)(F)F)c(F)c2)NC(=O)CN(C)C(=O)[C@H](CC2CCCCC2)N(C)C(=O)CN(C)C(=O)CN(C)C1=O` [Compound 231] (cyclo([Ac6c][NMeL][d(β3hA)][NMeL]I[Sar][Sar][NMeCha][Sar][hPhe(3-F,4-CF3)]P)): the IC50 worked out at 120 nM. To `CCCC[C@@H]1NC(=O)[C@H](Cc2cccc(I)c2)NC(=O)CN(C)C(=O)[C@H](Cc2ccc(C)cc2)N(C)C(=O)CN(C)C(=O)CN(C)C(=O)[C@H]([C@@H](C)CC)NC(=O)[C@H](CC(C)C)N(C)C(=O)C[C@@H](C(=O)N2CCCCC2)N(C)C(=O)[C@H](CC(C)C)NC(=O)[C@H](C)N(C)C1=O` [Compound 232] ([NMeL]I[Sar][Sar][NMePhe(4-Me)][Sar][Phe(3-I)][Nle][NMeA]L[NMeD]-Piperidide; lactam N-11) belongs 20 nM; to `CC[C@H](C)[C@@H]1NC(=O)[C@H](C)N(C)C(=O)C[C@@H](C(=O)N2CCCC2)NC(=O)[C@H](CC(C)C)N(C)C(=O)[C@H](Cc2ccccc2)N(C)C(=O)[C@H](COCC(=O)NC(C)(C)C)NC(=O)[C@H](CCc2ccc(C(F)(F)F)cc2)NC(=O)CN(C)C(=O)[C@H](Cc2ccc(Cl)cc2)N(C)C(=O)CN(C)C(=O)CN(C)C1=O` [Compound 233] ([NMeA]I[Sar][Sar][NMePhe(4-Cl)][Sar][hPhe(4-CF3)]S(CH2CONHtBu)[NMeF][NMeL]D-Pyrrolidide; lactam N-11), 66 nM; to `CC[C@H](C)[C@@H]1NC(=O)[C@H](CC(C)C)N(C)C(=O)C[C@@H](C(=O)N2CCCCC2)N(C)C(=O)[C@H](C(C)C)N(C)C(=O)C2(CCCC2)NC(=O)[C@@H]2CCCN2C(=O)[C@H](CCc2ccc(C(F)(F)F)c(Cl)c2)NC(=O)CN(C)C(=O)[C@H](CCS(C)(=O)=O)N(C)C(=O)[C@@H]2CCN2C(=O)[C@H](C)N(C)C1=O` [Compound 235] ([NMeL]I[NMeA][Aze][NMeMet(O2)][Sar][hPhe(3-Cl-4-CF3)]P[Ac5c][NMeV][NMeD]-Piperidide; lactam N-11), 11 nM. With `CC[C@H](C)[C@@H]1NC(=O)CCNC(=O)[C@H](Cc2cccc(F)c2)N(C)C(=O)[C@H](C2CCCCC2)N(C)C(=O)C2(CCCC2)NC(=O)[C@@H]2CCCN2C(=O)[C@H](CCc2ccc(C(F)(F)F)c(Cl)c2)NC(=O)CN(C)C(=O)[C@H](CC2CCCCC2)N(C)C(=O)CN(C)C(=O)CN(C)C1=O` [Compound 237] (cyclo([Ac5c][NMeChg][NMePhe(3-F)][βAla]I[Sar][Sar][NMeCha][Sar][hPhe(3-Cl-4-CF3)]P)), the IC50 stood at 42 nM.

The record behind these values is patent publication US12371454B2, “Cyclic peptide compound having Kras inhibitory action” (priority 2019, dated 2025).
